In ChEMBL document CHEMBL2375306, “Antimicrobial peptides containing unnatural amino acid exhibit potent bactericidal activity against ESKAPE pathogens” (Bioorg Med Chem, 2013):
In brackets after ≈: the same amount, converted by molar mass. Square brackets hold non-standard residues; d marks the D form. Peptide text beside a SMILES is read from it. * marks the point of attachment. ξ: configuration not given here. Pro(3ξ,4ξ-(CH2)4) = O=C(O)[C@H]1NCC2CCCCC21; Phe(4-Cl) = N[C@@H](Cc1ccc(Cl)cc1)C(=O)O; Tic = O=C(O)[C@@H]1Cc2ccccc2CN1; X4 = CC(=O)NC(=O)[C@H](CCCN)N*; X1 = CC(=O)NC(=O)[C@H](CN)N*; Orn = NCCC[C@H](N)C(=O)O; Dap = NC[C@H](N)C(=O)O

Experiments:
Type in all cases: functional
[1] = test system: Enterococcus faecium; assay: Antibacterial activity against Enterococcus faecium MMC4 after 24 hrs by broth microdilution method; details: MMC4, 24 h
[2] = test system: Klebsiella aerogenes; assay: Antibacterial activity against Enterobacter aerogenes after 24 hrs by broth microdilution method
[3] = test system: Pseudomonas aeruginosa; assay: Antibacterial activity against Pseudomonas aeruginosa PAO1 after 24 hrs by broth microdilution method; details: PAO1, 24 h
[4] = test system: Klebsiella pneumoniae; assay: Antibacterial activity against Klebsiella pneumoniae BAMS clinical isolate 07-18 after 24 hrs by broth microdilution method; details: BAMS clinical isolate 07-18, 24 h
[5] = test system: Acinetobacter baumannii; assay: Antibacterial activity against Acinetobacter baumannii WRAIR clinical isolate 13 after 24 hrs by broth microdilution method; details: WRAIR clinical isolate 13, 24 h
[6] = test system: Staphylococcus aureus; assay: Antibacterial activity against methicillin-sensitive Staphylococcus aureus UAMS-1 after 24 hrs by broth microdilution method; details: UAMS-1, 24 h

Row | SMILES | MIC [1] | MIC [2] | MIC [3] | MIC [4] | MIC [5] | MIC [6] | MBC [1] | MBC [2] | MBC [3] | MBC [4] | MBC [5] | MBC [6]
1 | CC(=O)NCC(=O)N[C@@H](Cc1ccccc1)C(=O)N1Cc2ccccc2C[C@H]1C(=O)N1CC2CCCCC2[C@H]1C(=O)NCC(=O)N[C@@H](CC(=O)O)C(=O)N[C@@H](CCCCN)C(=O)N1Cc2ccccc2C[C@H]1C(=O)N1CC2CCCCC2[C@H]1C(=O)NCC(=O)N[C@@H](Cc1ccccc1)C(=O)N1Cc2ccccc2C[C@H]1C(=O)N1CC2CCCCC2[C@H]1C(=O)NCC(=O)N[C@@H](CC(=O)O)C(=O)N[C@@H](CCCCN)C(=O)N1Cc2ccccc2C[C@H]1C(=O)N[C@@H](CCCCN)C(=O)N[C@@H](CCCCN)C(=O)N[C@@H](CCCCN)C(=O)N[C@@H](CCCCN)C(N)=O (stereo not given in full) (Ac-GF[Tic][Pro(3ξ,4ξ-(CH2)4)]GDK[Tic][Pro(3ξ,4ξ-(CH2)4)]GF[Tic][Pro(3ξ,4ξ-(CH2)4)]GDK[Tic]KKKK-NH2) | 12.5 µg/mL (≈ 4.68 µM) | > 100 µg/mL | > 100 µg/mL | 100 µg/mL (≈ 37.4 µM) | 12.5 µg/mL (≈ 4.68 µM) | > 100 µg/mL | 50 µg/mL (≈ 18.7 µM) | > 100 µg/mL | > 100 µg/mL | 100 µg/mL (≈ 37.4 µM) | 25 µg/mL (≈ 9.36 µM) | > 100 µg/mL
2 | CC(=O)NCC(=O)N[C@@H](Cc1ccccc1)C(=O)N1Cc2ccccc2C[C@H]1C(=O)N1CC2CCCCC2[C@H]1C(=O)NCC(=O)N[C@@H](CN)C(=O)N1Cc2ccccc2C[C@H]1C(=O)N1CC2CCCCC2[C@H]1C(=O)NCC(=O)N[C@@H](Cc1ccccc1)C(=O)N1Cc2ccccc2C[C@H]1C(=O)N1CC2CCCCC2[C@H]1C(=O)NCC(=O)N[C@@H](CN)C(=O)N1Cc2ccccc2C[C@H]1C(=O)N[C@@H](CN)C(=O)N[C@@H](CN)C(=O)N[C@@H](CN)C(=O)N[C@@H](CN)C(=O)NC(C)=O (stereo not given in full) (Ac-GF[Tic][Pro(3ξ,4ξ-(CH2)4)]G[Dap][Tic][Pro(3ξ,4ξ-(CH2)4)]GF[Tic][Pro(3ξ,4ξ-(CH2)4)]G[Dap][Tic][Dap][Dap][Dap]-X1) | 50 µg/mL (≈ 22.4 µM) | 50 µg/mL (≈ 22.4 µM) | 25 µg/mL (≈ 11.2 µM) | 12.5 µg/mL (≈ 5.6 µM) | 12.5 µg/mL (≈ 5.6 µM) | > 100 µg/mL | 100 µg/mL (≈ 44.8 µM) | 50 µg/mL (≈ 22.4 µM) | 25 µg/mL (≈ 11.2 µM) | 25 µg/mL (≈ 11.2 µM) | 12.5 µg/mL (≈ 5.6 µM) | 100 µg/mL (≈ 44.8 µM)
3 | CC(=O)NCC(=O)N[C@@H](Cc1ccccc1)C(=O)N1Cc2ccccc2C[C@H]1C(=O)N1CC2CCCCC2[C@H]1C(=O)NCC(=O)N[C@@H](CCCN)C(=O)N1Cc2ccccc2C[C@H]1C(=O)N1CC2CCCCC2[C@H]1C(=O)NCC(=O)N[C@@H](Cc1ccccc1)C(=O)N1Cc2ccccc2C[C@H]1C(=O)N1CC2CCCCC2[C@H]1C(=O)NCC(=O)N[C@@H](CCCN)C(=O)N1Cc2ccccc2C[C@H]1C(=O)N[C@@H](CCCN)C(=O)N[C@@H](CCCN)C(=O)N[C@@H](CCCN)C(=O)N[C@@H](CCCN)C(=O)NC(C)=O (stereo not given in full) (Ac-GF[Tic][Pro(3ξ,4ξ-(CH2)4)]G[Orn][Tic][Pro(3ξ,4ξ-(CH2)4)]GF[Tic][Pro(3ξ,4ξ-(CH2)4)]G[Orn][Tic][Orn][Orn][Orn]-X4) | 12.5 µg/mL (≈ 5.21 µM) | 100 µg/mL (≈ 41.7 µM) | 50 µg/mL (≈ 20.8 µM) | 50 µg/mL (≈ 20.8 µM) | 6.25 µg/mL (≈ 2.61 µM) | 100 µg/mL (≈ 41.7 µM) | 50 µg/mL (≈ 20.8 µM) | > 100 µg/mL | 50 µg/mL (≈ 20.8 µM) | 50 µg/mL (≈ 20.8 µM) | 25 µg/mL (≈ 10.4 µM) | 100 µg/mL (≈ 41.7 µM)

Now those with a lower MIC [1], led by results:

Row | MIC [1] | MIC [2] | MIC [3] | MIC [4] | MIC [5] | MIC [6] | SMILES | MBC [1] | MBC [2] | MBC [3] | MBC [4] | MBC [5] | MBC [6]
4 | 6.25 µg/mL (≈ 2.49 µM) | > 100 µg/mL | 50 µg/mL (≈ 19.9 µM) | 50 µg/mL (≈ 19.9 µM) | 6.25 µg/mL (≈ 2.49 µM) | 25 µg/mL (≈ 9.96 µM) | CC(=O)NCC(=O)N[C@@H](Cc1ccc(Cl)cc1)C(=O)N1Cc2ccccc2C[C@H]1C(=O)N1CC2CCCCC2[C@H]1C(=O)NCC(=O)N[C@@H](CCCCN)C(=O)N1Cc2ccccc2C[C@H]1C(=O)N1CC2CCCCC2[C@H]1C(=O)NCC(=O)N[C@@H](Cc1ccc(Cl)cc1)C(=O)N1Cc2ccccc2C[C@H]1C(=O)N1CC2CCCCC2[C@H]1C(=O)NCC(=O)N[C@@H](CCCCN)C(=O)N1Cc2ccccc2C[C@H]1C(=O)N[C@@H](CCCCN)C(=O)N[C@@H](CCCCN)C(=O)N[C@@H](CCCCN)C(=O)N[C@@H](CCCCN)C(N)=O (stereo not given in full) (Ac-G[Phe(4-Cl)][Tic][Pro(3ξ,4ξ-(CH2)4)]GK[Tic][Pro(3ξ,4ξ-(CH2)4)]G[Phe(4-Cl)][Tic][Pro(3ξ,4ξ-(CH2)4)]GK[Tic]KKKK-NH2) | 25 µg/mL (≈ 9.96 µM) | > 100 µg/mL | 50 µg/mL (≈ 19.9 µM) | 100 µg/mL (≈ 39.8 µM) | 25 µg/mL (≈ 9.96 µM) | 50 µg/mL (≈ 19.9 µM)
5 | 6.25 µg/mL (≈ 1.82 µM) | > 100 µg/mL | 50 µg/mL (≈ 14.6 µM) | > 100 µg/mL | 25 µg/mL (≈ 7.3 µM) | 50 µg/mL (≈ 14.6 µM) | CC(C)C[C@H](NC(=O)[C@@H](N)CCCCN)C(=O)N1Cc2ccccc2C[C@H]1C(=O)N1CC2CCCCC2[C@H]1C(=O)N[C@@H](CCCCN)C(=O)N1Cc2ccccc2C[C@H]1C(=O)N1CC2CCCCC2[C@H]1C(=O)NC(=O)CN[C@@H](Cc1ccccc1)C(=O)N1Cc2ccccc2C[C@H]1C(=O)N1CC2CCCCC2[C@H]1C(=O)N[C@@H](CCCCN)C(=O)N1Cc2ccccc2C[C@H]1C(=O)N1CC2CCCCC2[C@H]1C(=O)NC(=O)CN[C@@H](Cc1ccccc1)C(=O)N1Cc2ccccc2C[C@H]1C(=O)N1CC2CCCCC2[C@H]1C(=O)N[C@@H](CCCCN)C(=O)N1Cc2ccccc2C[C@H]1C(=O)N1CC2CCCCC2[C@H]1C(=O)N[C@@H](CCCCN)C(=O)N[C@@H](CCCCN)C(=O)N[C@@H](CCCCN)C(=O)N[C@@H](CCCCN)C(N)=O (stereo not given in full) | 25 µg/mL (≈ 7.3 µM) | > 100 µg/mL | 50 µg/mL (≈ 14.6 µM) | 100 µg/mL (≈ 29.2 µM) | 100 µg/mL (≈ 29.2 µM) | 50 µg/mL (≈ 14.6 µM)
